Results on 3 compounds are retold here after PMC4352194, “Physicochemical and Biological Properties of Oxovanadium(IV), Cobalt(II) and Nickel(II) Complexes with Oxydiacetate Anions” (Biological Trace Element Research, 2014).

Molecules are shown by their SMILES.

A short description of test [1]: Scavenging of superoxide radicals (NBT method). Particulars: complex concentration causing 50 % reduction of superoxide ion referred to that of ascorbic acid; NBT assay in DMSO. How it is done:
Nitro blue tetrazolium (NBT, 98 % purity), KO2 (96 % purity) and 18-Crown-6 (99 % purity) were purchased from Sigma-Aldrich. The superoxide scavenging activity of the complexes was determined by using their ability to inhibit the reduction of nitro blue tetrazolium (NBT) by superoxide ions. UV–vis measurements were carried out by using the Perkin-Elmer Lambda 650 spectrophotometer equipped with the temperature control—Peltier system with a scan accuracy of 1 and 1-nm slit width. The measurements were carried out in DMSO solution at 288.15 K according to the method described in the literature. Superoxide free radicals were generated by dissolving 6.5-mg portion of KO2 powder into DMSO (50 mL) together with 90 mg of 18-crown-6-ether. NBT (10 mg) was dissolved directly in DMSO (10 mL). In general, 1.5 mL of DMSO/KO2/18-crown-6 mixture was added to 0.5 mL of the sample to be assayed. The mixture was kept for 20 min and then 0.1 mL of NBT solution was added while stirring. The absorbance was monitored spectrophotometrically at 560 nm. The control test was carried out under the same experimental condition under assumption that KO2 and 18-crown-6 were absent in DMSO.
The ability of the complexes to scavenge superoxide anion radicals was evaluated by the NBT assay. The measurements were carried out in the DMSO solution in which KO2 was dissolved via the use of a crown ether to generate superoxide radicals (see Material and Methods).
The antioxidant activities of the complexes towards O2 ^− were compared to each other. Based on the obtained relationships (Fig. 3), the complex concentrations causing the 50 % reduction of the concentration of the superoxide ion were calculated. The obtained values were referred to the concentration of ascorbic acid causing the same O2 ^− reduction effect measured at the same experimental conditions. In this way, ascorbic acid equivalents of the complexes were obtained. They are equal 0.35, 1.11 and 4.50 for VO(ODA), Ni(ODA) and Co(ODA), respectively.

Test [2] has as its system Human Dermal Fibroblasts adult (HDFa) cell line. Nature of the test: Proliferation assay (BrdU ELISA). Format: cell-based. Particulars: 6 day-exposure, 24-h BrdU incorporation. How it is done: The Human Dermal Fibroblasts adult (HDFa) cell line (Cascade Biologics) was used in all experiments. Unless otherwise specified, cells were grown in the Dulbecco’s modified Eagle’s medium (DMEM) supplemented with 10 % fetal bovine serum (FBS) and 1× antibiotic and antimycotic solutions (all purchased from Sigma) and incubated at 310.15 K in the humidified 5 % CO2 atmosphere. The antiproliferative activity of compounds was assessed using the Cell Proliferation ELISA, BrdU (colorimetric) kit (Roche Applied Science). Cells were seeded at a number of 10^3 cells per well of 96-well tissue culture plate and incubated overnight at 310.15 K. The growth medium was substituted with the medium supplemented with tested compounds, and after 5 days of incubation, labelling with 5-bromo-2′-deoxyuridine (BrdU) was performed for another 24 h. Following steps were performed according to the manufacturer’s protocol.

Test [3] has as its system Bacillus subtilis. Briefly: Broth dilution test (MIC, MBC). It is filed as cell-based. Particulars: B. subtilis, broth dilution 1–2048 μg/mL. How it is done:
(§1) The antimicrobial activity of complex compounds was assessed against Bacillus subtilis, Escherichia coli, Enterococcus faecalis, Pseudomonas aeruginosa, Staphylococcus aureus, Staphylococcus epidermidis (all strains were from the collection of the Department of Molecular Biology, University of Gdańsk). All bacteria were cultured in the Luria-Bertani (LB) broth at 310.15 K in the air with shaking. LB agar plates were prepared by the supplementation of LB broth with the 1.5 % bacteriological agar. Stock solutions of complex compounds were freshly prepared in the LB broth at the concentration of 25 mg/mL. The antimicrobial activity was assessed with the broth dilution method. The LB broth supplemented with the twofold diluted amount of tested compounds (dilution range 1–2048 μg/mL) was inoculated with 10^6 cfu of bacteria cells per well of 96-well plate. Cultures were incubated at 310.15 K with shaking for 18–20 h in the air, and the bacterial growth was estimated by measuring the optical density at 600 nm with the LB broth as a background control. A minimum inhibitory concentration (MIC) was defined as the lowest concentration of the tested compound (in μg/mL) at which there was no visible growth of bacteria compared to the growth observed for the inoculated LB broth without any supplementation. […] The concentration (in μg/mL) at which no colonies were observed was defined as MBC.
In general terms: Broth dilution looks for growth in wells or tubes with falling amounts of substance.

The next test deals with Enterococcus faecalis. Nature of the test: Broth dilution test (MIC, MBC). It is filed as cell-based. Particulars: E. faecalis; for MIC: broth dilution 1–2048 μg/mL. How it is done: as §1
For the next test, the system named is Escherichia coli. Briefly: Broth dilution test (MIC, MBC). Format: cell-based. Particulars: E. coli; for MIC: broth dilution 1–2048 μg/mL. The method, then: as §1
Another test deals with Pseudomonas aeruginosa. Briefly: Broth dilution test (MIC, MBC). It is filed as cell-based. Particulars: P. aeruginosa, broth dilution 1–2048 μg/mL. How it is done: as §1
The test system of another test is Staphylococcus aureus. Nature of the test: Broth dilution test (MIC, MBC). It is filed as cell-based. Particulars: S. aureus; for MIC: broth dilution 1–2048 μg/mL. How it is done:
as §1

Test [4] has as its system Staphylococcus epidermidis. Nature of the test: Broth dilution test (MIC, MBC). Format: cell-based. Particulars: S. epidermidis; for MIC: broth dilution 1–2048 μg/mL. The method, then: as §1
Test [5] has as its system Bacillus subtilis. Briefly: Disc diffusion test. Format: cell-based. Particulars: B. subtilis. The method, then:
The antimicrobial activity of complex compounds was assessed against Bacillus subtilis, Escherichia coli, Enterococcus faecalis, Pseudomonas aeruginosa, Staphylococcus aureus, Staphylococcus epidermidis (all strains were from the collection of the Department of Molecular Biology, University of Gdańsk). All bacteria were cultured in the Luria-Bertani (LB) broth at 310.15 K in the air with shaking. LB agar plates were prepared by the supplementation of LB broth with the 1.5 % bacteriological agar. Stock solutions of complex compounds were freshly prepared in the LB broth at the concentration of 25 mg/mL. Aliquots of 0.05 mL of bacterial culture at the optical density at 600 nm of 0.1 (inoculum 5 × 10^6 cells per plate) were spread on LB agar plates. Sterile filter paper discs (of 6 mm diameter) were impregnated with solutions of complex compounds prepared in the deionized water at the following amounts: 0.1, 0.2, 0.5 and 1.0 mg per disc and placed on agar plates. After an overnight incubation at 310.15 K, zones of bacterial growth inhibition were measured. Neomycin at the amount of 0.1 mg/disc was used as a control.
Background: A growth-free zone around the sample is the usual read-out of agar diffusion tests.

`O.O.O.O.O.O.O.O.O.O=C([O-])COCC(=O)[O-].O=C([O-])COCC(=O)[O-].[Ni+2].[Ni+2]` [Ni(ODA), [Ni(ODA)(H2O)3]·1.5H2O]: the ascorbic acid equivalents in test [1] was determined as 1.11. In addition, in test [2], the IC25 was 148.65 µM. The IC50 in test [2] was 220 µM; in [2] (listed as Ni(II) complex) it was around 200 µM. Besides, the IC75 in test [2] is above 1000 µM. Moreover, the MIC in the test with Bacillus subtilis [3] amounted to 512 µg/mL; against Enterococcus faecalis, 1024 µg/mL; against Escherichia coli, 1024 µg/mL; with Pseudomonas aeruginosa, 1024 µg/mL; in the test on Staphylococcus aureus it was 1024 µg/mL; in test [4], 512 µg/mL. In addition, the MBC in [4] came to 2048 µg/mL. For the same compound, the “bacteriostatic or bactericidal activity” value in [4] is “bactericidal activity”. Besides, the “Zone of growth inhibition” value in the test with Bacillus subtilis [5] (500 μg/disc) and with Bacillus subtilis [5] (1000 μg/disc) was 8 mm in each case.

`O.O.O=C([O-])COCC(=O)[O-].[O]=[V+2]` [VO(ODA), [VO(ODA)(H2O)2]]: the ascorbic acid equivalents in [1] stood at 0.35. Moreover, in [2], the IC25 amounted to 23.41 µM. Further, the IC50 was determined as 24.9 µM in test [2] and 25 µM in test [2] (listed as oxovanadium(IV) complex). This compound also registered an IC75 in [2] of 26.42 µM. Also, the MIC in the test on Bacillus subtilis [3] came to 2048 µg/mL; against Enterococcus faecalis, 1024 µg/mL; against Escherichia coli, 2048 µg/mL; against Pseudomonas aeruginosa, 1024 µg/mL; against Staphylococcus aureus, 1024 µg/mL; in [4] it was 2048 µg/mL. Moreover, the MBC against Enterococcus faecalis is 1024 µg/mL; in the test on Staphylococcus aureus, 2048 µg/mL; in [4], 2048 µg/mL. The “bacteriostatic or bactericidal activity” value (in the test with Enterococcus faecalis; in the test with Staphylococcus aureus; in test [4]) was “bactericidal activity” in each case. Moreover, the “Zone of growth inhibition” value in the test with Bacillus subtilis [5] (1000 μg/disc) is 7 mm.

Turning to `O.O.O.O=C(O)COCC(=O)O.[Co]` [Co(ODA), [Co(ODA)(H2O)2]·H2O], the ascorbic acid equivalents in test [1] is reported as 4.50. This compound also registered an IC25 in test [2] of 128.90 µM. The IC50 in test [2] is 175 µM; in test [2] (listed as Co(II) complex), around 200 µM. The IC75 in [2] was above 1000 µM. Moreover, the MIC against Bacillus subtilis [3] came to 256 µg/mL; in the test on Enterococcus faecalis, 256 µg/mL; against Escherichia coli it was 512 µg/mL; against Pseudomonas aeruginosa it was 256 µg/mL; in the test with Staphylococcus aureus it was 256 µg/mL; in [4], 256 µg/mL. Also, the MBC in the test on Escherichia coli was determined as 1024 µg/mL; in the test on Staphylococcus aureus, 512 µg/mL; in test [4], 2048 µg/mL. The “bacteriostatic or bactericidal activity” value (with Escherichia coli; in the test on Staphylococcus aureus; in test [4]) was “bactericidal activity” each time. Also, the “Zone of growth inhibition” value in the test with Bacillus subtilis [5] (500 μg/disc) turned out to be 9 mm; with Bacillus subtilis [5] (1000 μg/disc) it was 11 mm.

What is called IC25 is the concentration needed for an effect of 25%. What is called IC50 is the concentration that gives 50% inhibition. Broadly, the IC75 is the point of the concentration-response curve where the effect stands at 75%. Read a high IC75 as weaker potency. What is called MIC is the smallest concentration in the dilution series that meets the test's criterion for growth inhibition. A lower MIC goes with greater potency. As a reminder, the MBC is the smallest concentration meeting the test's criterion for killing.
